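Results reflect a 48-hour exposure of cells in 96-well plates to compound at five concentrations. At the GI50, growth is halved. TGI denotes the concentration required for complete inhibition of growth.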

Among the test systems are OVCAR-8 ovarian; EKVX NSCLC; HCT-15 colon; NCI-H460 lung; SNB-75 CNS; KM12 colon; SK-MEL-28 melanoma; OVCAR-3 ovarian; NCI/ADR-RES ovarian; OVCAR-4 ovarian.
Common to all, as to assay: NCI-60 cell line screen, 48 h

Turning to `O=S(=O)([O-])[O-].[Fe+2].[OH2+]c1c(Cl)cc(Cl)cc1/C=N/Nc1ccccn1`, the TGI with OVCAR-8 ovarian amounted to 2.94 µM; in the assay on EKVX NSCLC, 2.25 µM; in the assay with HCT-15 colon, 3.48 µM; with NCI-H460 lung it was 4.42 µM; with SNB-75 CNS, 1.64 µM; in the assay with KM12 colon, 2.75 µM. Moreover, the TGI was determined as 3.32 µM with SK-MEL-28 melanoma and 0.578 µM with OVCAR-3 ovarian.
Regarding `CC(=O)[C@]12OC(=O)C3=C1[C@H](CC[C@@H]3C)[C@@H](C)C[C@H]2C=C(C)C`, the TGI in the assay on OVCAR-8 ovarian worked out at 17 µM; with NCI/ADR-RES ovarian, 17.7 µM; in the assay with HCT-15 colon, 15.5 µM; in the assay with NCI-H460 lung, 17.3 µM; with KM12 colon it was 14.9 µM; in the assay on OVCAR-3 ovarian, 14 µM.
As for `O=C1O/C(=C\C=C\CO)C=C1/C=C/CO`, the TGI in the assay on OVCAR-8 ovarian is 38.6 µM; in the assay on NCI/ADR-RES ovarian it was 89.1 µM; in the assay with EKVX NSCLC, 35.5 µM; in the assay with OVCAR-4 ovarian, above 100 µM; with HCT-15 colon it was 30.8 µM; in the assay with NCI-H460 lung, above 100 µM. For the same molecule, the TGI in the assay on SNB-75 CNS is above 100 µM; in the assay with KM12 colon, above 100 µM; in the assay with SK-MEL-28 melanoma, 49.7 µM; with OVCAR-3 ovarian, 48.8 µM.
Consider `N=C(N)SCCN1CCCCC1`, for which the TGI with OVCAR-8 ovarian, in the assay with NCI/ADR-RES ovarian, with EKVX NSCLC, in the assay with OVCAR-4 ovarian, in the assay on HCT-15 colon and in the assay on NCI-H460 lung was above 100 µM in each case. Further, the TGI with SNB-75 CNS was 94.1 µM; with KM12 colon, above 100 µM; with SK-MEL-28 melanoma it was 88.8 µM; in the assay with OVCAR-3 ovarian, 43.9 µM.
Consider `NC(=S)N/N=C1\CC(c2ccccc2)Nc2ccccc21` (stereo not drawn), for which the TGI in the assay on OVCAR-8 ovarian was above 100 µM; with EKVX NSCLC, above 100 µM; in the assay on HCT-15 colon, above 100 µM; in the assay on NCI-H460 lung it was above 100 µM; in the assay with SNB-75 CNS, 49.1 µM; in the assay with SK-MEL-28 melanoma, above 100 µM. In the assay with OVCAR-3 ovarian, the TGI is above 100 µM.
As to `Nc1ccc(S(=O)(=O)NCCS(=O)(=O)O)cc1`, the TGI with OVCAR-8 ovarian, in the assay on NCI/ADR-RES ovarian, in the assay with EKVX NSCLC, in the assay with OVCAR-4 ovarian, in the assay on HCT-15 colon and in the assay on NCI-H460 lung was above 100 µM in each case. Also, the TGI with SNB-75 CNS, with KM12 colon, in the assay on SK-MEL-28 melanoma and with OVCAR-3 ovarian was above 100 µM each time.
As to `Cc1cccc(/C=C2/C(=O)Nc3ccccc32)n1`, the TGI in the assay on OVCAR-8 ovarian was above 80.3 µM; in the assay on NCI/ADR-RES ovarian it was 53.2 µM; in the assay with EKVX NSCLC, 71.9 µM; in the assay with OVCAR-4 ovarian, 56.7 µM; in the assay on HCT-15 colon, above 68.9 µM; in the assay with NCI-H460 lung, above 81.2 µM. Also, the TGI in the assay on SNB-75 CNS was above 100 µM; with KM12 colon, 35.4 µM; in the assay on SK-MEL-28 melanoma, above 100 µM; with OVCAR-3 ovarian, 39.3 µM.
Regarding `CCCCCCCCc1ccc(CCC(N)(CO)CO)cc1`, the GI50 with EKVX NSCLC is 2.36 µM; with HCT-15 colon it was 1680 nM; in the assay with NCI-H460 lung, 1760 nM; in the assay on SNB-75 CNS, 2130 nM; in the assay with KM12 colon, 1930 nM; in the assay on SK-MEL-28 melanoma, 1800 nM. The GI50 in the assay on OVCAR-3 ovarian was 1.94 µM. The TGI in the assay with EKVX NSCLC was determined as 5.8 µM; in the assay with HCT-15 colon it was 3.42 µM; with NCI-H460 lung it was 3.53 µM; in the assay with SNB-75 CNS it was 4.2 µM; in the assay with KM12 colon, 3.44 µM; in the assay with SK-MEL-28 melanoma, 3.2 µM. Also, the TGI in the assay on OVCAR-3 ovarian is 3.48 µM.
With `COc1cc(O)c2c(=O)c(OC)c(-c3ccc(OC)c(OC)c3)oc2c1.[Zn+2]`, the GI50 in the assay with OVCAR-8 ovarian is 13.2 µM; with NCI/ADR-RES ovarian, 14.9 µM; with EKVX NSCLC, 25.7 µM; in the assay with OVCAR-4 ovarian it was 4.19 µM; with SK-MEL-28 melanoma, above 100000 nM; in the assay with OVCAR-3 ovarian, 14.1 µM. In addition, the TGI with OVCAR-8 ovarian is above 100 µM; in the assay on NCI/ADR-RES ovarian it was above 100 µM; with EKVX NSCLC, above 100 µM; in the assay on OVCAR-4 ovarian, 32.2 µM; in the assay with NCI-H460 lung, above 100 µM; in the assay with SNB-75 CNS, 8.79 µM. Further, the TGI is above 100 µM in the assay on SK-MEL-28 melanoma and 35.7 µM in the assay on OVCAR-3 ovarian.
In the case of `Cc1ncc(COP(=O)(O)O)c(C)c1O`, the TGI in the assay with OVCAR-8 ovarian, with NCI/ADR-RES ovarian, in the assay on EKVX NSCLC, with OVCAR-4 ovarian, in the assay with HCT-15 colon and with NCI-H460 lung was above 100 µM in each case. Further, the TGI in the assay with KM12 colon, in the assay on SK-MEL-28 melanoma and in the assay with OVCAR-3 ovarian was above 100 µM throughout.
As for `CC(=O)C(N=NC1CCC(S(=O)(=O)NB2N=CS2)CC1)C(=O)Nc1ccccc1C` (stereo not drawn), the TGI turned out to be 34.1 µM in the assay on OVCAR-8 ovarian; 41.2 µM with EKVX NSCLC; 74.1 µM in the assay with OVCAR-4 ovarian; 22.3 µM with HCT-15 colon; 33.9 µM in the assay with NCI-H460 lung; 33.8 µM in the assay on SNB-75 CNS. The TGI in the assay with KM12 colon was found to be 30.1 µM; in the assay on SK-MEL-28 melanoma, 30.8 µM; in the assay with OVCAR-3 ovarian, 27 µM.
For the molecule `C[N+]1(c2ccccc2)C=C(c2ccccc2)SC1=S` (stereo not drawn), the TGI in the assay on OVCAR-8 ovarian, with NCI/ADR-RES ovarian, in the assay with EKVX NSCLC, with HCT-15 colon, in the assay on NCI-H460 lung and with KM12 colon was above 100 µM each time. The TGI in the assay on SK-MEL-28 melanoma and in the assay on OVCAR-3 ovarian was above 100 µM throughout.
In the case of `O=C(/C=C/c1ccc(O)cc1)c1cc(-c2cc(CCC(=O)c3ccc(O)cc3O)ccc2O)c(O)cc1O`, the TGI in the assay on OVCAR-8 ovarian, with NCI/ADR-RES ovarian, in the assay with EKVX NSCLC, in the assay on OVCAR-4 ovarian, with HCT-15 colon and with NCI-H460 lung was above 50 µM throughout. Besides, the TGI was 41.7 µM in the assay on SNB-75 CNS, above 50 µM in the assay on KM12 colon, above 50 µM with SK-MEL-28 melanoma and above 50 µM with OVCAR-3 ovarian.
As to `C[N+]1(C)C/C(=C\c2ccc(O)cc2)C(=O)/C(=C/c2ccc(O)cc2)C1`, the TGI with OVCAR-8 ovarian, in the assay with EKVX NSCLC, in the assay on OVCAR-4 ovarian, in the assay with HCT-15 colon, with NCI-H460 lung and in the assay on SNB-75 CNS was above 100 µM in each case. Also, the TGI in the assay with KM12 colon, in the assay on SK-MEL-28 melanoma and with OVCAR-3 ovarian was above 100 µM throughout.
Take `C=C(C[C@@H](O)[C@H](C)NC(=O)OCc1ccccc1)C(=O)OC(C)(C)C`: the TGI with OVCAR-8 ovarian, in the assay on NCI/ADR-RES ovarian, in the assay with EKVX NSCLC, in the assay on OVCAR-4 ovarian, in the assay on HCT-15 colon and with NCI-H460 lung was above 100 µM each time. Moreover, the TGI in the assay with SNB-75 CNS, in the assay on KM12 colon, in the assay on SK-MEL-28 melanoma and with OVCAR-3 ovarian was above 100 µM throughout.
In the case of `CCOc1ccc(N=Nc2ccc(-c3ccc(N=Nc4c(O)ccc5cc(S(=O)(=O)O)cc(S(=O)(=O)O)c45)cc3)cc2)cc1`, the TGI in the assay with OVCAR-8 ovarian, in the assay with NCI/ADR-RES ovarian, with EKVX NSCLC, in the assay with OVCAR-4 ovarian, in the assay on HCT-15 colon and in the assay on NCI-H460 lung was above 100 µM throughout. In addition, the TGI in the assay with KM12 colon, in the assay on SK-MEL-28 melanoma and with OVCAR-3 ovarian was above 100 µM in each case.
`CC(=O)c1c(C)cc2cccc(OC3OC(CO)C(O)C(O)C3O)c2c1O` (stereo not drawn) (tested in a mixture with another compound): the TGI in the assay with OVCAR-8 ovarian, in the assay with NCI/ADR-RES ovarian, in the assay on EKVX NSCLC, in the assay with OVCAR-4 ovarian, in the assay with HCT-15 colon and with NCI-H460 lung was above 100 µM each time. The TGI with SNB-75 CNS, in the assay on KM12 colon, in the assay with SK-MEL-28 melanoma and in the assay with OVCAR-3 ovarian was above 100 µM in each case.

These data come from PubChem BioAssay (NCI).
